According to ChEMBL document CHEMBL1201862, “PubChem BioAssay data set” (2004):
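Five concentrations, 48 hours, 96-well plates. Here, GI50 denotes the concentration required for 50% inhibition of growth.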 Activity calls are given as the source filed them. Cut-off read from the data, not from the text of the source: active = GI50 up to about 1.1 µM and inactive = higher.

Key:
Assay in all cases: DTP human tumour cell line panel, 48 h
[1] = tested on: 786-0
[2] = tested on: A498
[3] = tested on: A549
[4] = tested on: ACHN
[5] = tested on: CAKI-1
[6] = tested on: CCRF-CEM
[7] = tested on: COLO 205
[8] = tested on: DMS-114
[9] = tested on: DMS-273
[10] = tested on: EKVX
[11] = tested on: HCC 2998
[12] = tested on: HCT-116
[13] = tested on: HCT-15
[14] = tested on: HL-60
[15] = tested on: HOP-62
[16] = tested on: HT-29
[17] = tested on: K562
[18] = tested on: KM-20L2
[19] = tested on: KM12
[20] = tested on: LOX IMVI
[21] = tested on: LXFL 529
[22] = tested on: M14
[23] = tested on: MOLT-4
[24] = tested on: Malme-3M
[25] = tested on: NCI-H23
[26] = tested on: NCI-H460
[27] = tested on: NCI-H522
[28] = tested on: OVCAR-3
[29] = tested on: OVCAR-4
[30] = tested on: OVCAR-8
[31] = tested on: RPMI-8226
[32] = tested on: RXF 393
[33] = tested on: SF-268
[34] = tested on: SF-295
[35] = tested on: SF-539
[36] = tested on: SK-MEL-28
[37] = tested on: SK-MEL-2
[38] = tested on: SK-MEL-5
[39] = tested on: SK-OV-3
[40] = tested on: SN12C
[41] = tested on: SNB-19
[42] = tested on: SNB-75
[43] = tested on: SNB-78
[44] = tested on: SR
[45] = tested on: SW-620
[46] = tested on: TK-10
[47] = tested on: U-251
[48] = tested on: UACC-257
[49] = tested on: UACC-62
[50] = tested on: UO-31
[51] = tested on: DLD-1
[52] = tested on: HOP-18
[53] = tested on: HOP-92
[54] = tested on: IGROV-1
[55] = tested on: M19-MEL
[56] = tested on: OVCAR-5

Compound: c1ccc(C2=NOC3COc4ccccc4OCC23)cc1 (configuration not stated)
- GI50 [1]: > 100 µM (inactive)
- GI50 [2]: > 100 µM (inactive)
- GI50 [3]: > 100 µM (inactive)
- GI50 [4]: > 100 µM (inactive)
- GI50 [5]: 97.5 µM (inactive)
- GI50 [6]: > 100 µM (inactive)
- GI50 [7]: > 100 µM (inactive)
- GI50 [8]: > 100 µM (inactive)
- GI50 [9]: > 100 µM (inactive)
- GI50 [10]: > 100 µM (inactive)
- GI50 [11]: > 100 µM (inactive)
- GI50 [12]: > 100 µM (inactive)
- GI50 [13]: > 100 µM
- GI50 [14]: 89.5 µM (inactive)
- GI50 [15]: > 100 µM (inactive)
- GI50 [16]: > 100 µM (inactive)
- GI50 [17]: 72.6 µM (inactive)
- GI50 [18]: > 100 µM (inactive)
- GI50 [19]: 8.17 µM (inactive)
- GI50 [20]: > 100 µM (inactive)
- GI50 [21]: > 100 µM (inactive)
- GI50 [22]: > 100 µM (inactive)
- GI50 [23]: > 100 µM (inactive)
- GI50 [24]: > 100 µM (inactive)
- GI50 [25]: > 100 µM (inactive)
- GI50 [26]: > 100 µM (inactive)
- GI50 [27]: > 100 µM (inactive)
- GI50 [28]: > 100 µM (inactive)
- GI50 [29]: > 100 µM (inactive)
- GI50 [30]: > 100 µM (inactive)
- GI50 [31]: > 100 µM (inactive)
- GI50 [32]: > 100 µM (inactive)
- GI50 [33]: > 100 µM (inactive)
- GI50 [34]: > 100 µM (inactive)
- GI50 [35]: > 100 µM (inactive)
- GI50 [36]: > 100 µM (inactive)
- GI50 [37]: > 100 µM (inactive)
- GI50 [38]: 61.5 µM (inactive)
- GI50 [39]: > 100 µM (inactive)
- GI50 [40]: > 100 µM (inactive)
- GI50 [41]: > 100 µM (inactive)
- GI50 [42]: 54.6 µM (inactive)
- GI50 [43]: > 100 µM (inactive)
- GI50 [44]: > 100 µM (inactive)
- GI50 [45]: > 100 µM (inactive)
- GI50 [46]: > 100 µM (inactive)
- GI50 [47]: > 100 µM (inactive)
- GI50 [48]: > 100 µM (inactive)
- GI50 [49]: > 100 µM (inactive)
- GI50 [50]: 77.1 µM (inactive)

Compound: CCCCCCCOc1ccc(/C=C\c2cc[n+](CCCCCCCC[n+]3ccc(/C=C\c4ccc(OCCCCCCC)cc4)cc3)cc2)cc1
- GI50 [1]: 14.7 µM (inactive)
- GI50 [2]: 26.6 µM (inactive)
- GI50 [3]: 8.55 µM (inactive)
- GI50 [4]: 38.2 µM (inactive)
- GI50 [5]: 33.5 µM (inactive)
- GI50 [6]: > 100 µM (inactive)
- GI50 [7]: 10.7 µM (inactive)
- GI50 [51]: 21.8 µM (inactive)
- GI50 [8]: 21.6 µM (inactive)
- GI50 [9]: 4.3 µM (inactive)
- GI50 [10]: > 100 µM (inactive)
- GI50 [12]: 13.6 µM (inactive)
- GI50 [13]: 19.9 µM
- GI50 [14]: 4.3 µM (inactive)
- GI50 [52]: 15.1 µM (inactive)
- GI50 [15]: 26.6 µM (inactive)
- GI50 [53]: > 100 µM (inactive)
- GI50 [16]: 13.8 µM (inactive)
- GI50 [54]: 11.3 µM (inactive)
- GI50 [18]: 29.6 µM (inactive)
- GI50 [19]: 15 µM (inactive)
- GI50 [20]: 25 µM (inactive)
- GI50 [21]: 13.3 µM (inactive)
- GI50 [22]: 17.5 µM (inactive)
- GI50 [55]: 21.9 µM (inactive)
- GI50 [23]: 15.2 µM (inactive)
- GI50 [24]: 18.7 µM (inactive)
- GI50 [25]: 28.2 µM (inactive)
- GI50 [26]: 5.51 µM (inactive)
- GI50 [27]: 2.64 µM (inactive)
- GI50 [28]: 19.1 µM (inactive)
- GI50 [29]: 21.6 µM (inactive)
- GI50 [56]: 17.7 µM (inactive)
- GI50 [30]: 20.7 µM (inactive)
- GI50 [31]: 7.29 µM (inactive)
- GI50 [32]: > 100 µM (inactive)
- GI50 [33]: 23.8 µM (inactive)
- GI50 [34]: 13.3 µM (inactive)
- GI50 [35]: 65.5 µM (inactive)
- GI50 [36]: 17.6 µM (inactive)
- GI50 [37]: 17.6 µM (inactive)
- GI50 [38]: 14.6 µM (inactive)
- GI50 [39]: 28.1 µM (inactive)
- GI50 [40]: 20 µM (inactive)
- GI50 [41]: 7.87 µM (inactive)
- GI50 [42]: > 100 µM (inactive)
- GI50 [43]: > 100 µM (inactive)
- GI50 [46]: 23.9 µM (inactive)
- GI50 [47]: 7.46 µM (inactive)
- GI50 [48]: 86.1 µM (inactive)
- GI50 [49]: 35.3 µM (inactive)
- GI50 [50]: 19.5 µM (inactive)
